{"source": "patent US10479784B2", "about": "“Substituted pyrazin-2-amines as inhibitors of ATR kinase” (Vertex Pharmaceuticals Incorporated, priority 2008, dated 2019)"}
{"target": "full-length ATR (Homo sapiens (Human), UniProt Q13535)", "sequence (Q13535 whole entry)": "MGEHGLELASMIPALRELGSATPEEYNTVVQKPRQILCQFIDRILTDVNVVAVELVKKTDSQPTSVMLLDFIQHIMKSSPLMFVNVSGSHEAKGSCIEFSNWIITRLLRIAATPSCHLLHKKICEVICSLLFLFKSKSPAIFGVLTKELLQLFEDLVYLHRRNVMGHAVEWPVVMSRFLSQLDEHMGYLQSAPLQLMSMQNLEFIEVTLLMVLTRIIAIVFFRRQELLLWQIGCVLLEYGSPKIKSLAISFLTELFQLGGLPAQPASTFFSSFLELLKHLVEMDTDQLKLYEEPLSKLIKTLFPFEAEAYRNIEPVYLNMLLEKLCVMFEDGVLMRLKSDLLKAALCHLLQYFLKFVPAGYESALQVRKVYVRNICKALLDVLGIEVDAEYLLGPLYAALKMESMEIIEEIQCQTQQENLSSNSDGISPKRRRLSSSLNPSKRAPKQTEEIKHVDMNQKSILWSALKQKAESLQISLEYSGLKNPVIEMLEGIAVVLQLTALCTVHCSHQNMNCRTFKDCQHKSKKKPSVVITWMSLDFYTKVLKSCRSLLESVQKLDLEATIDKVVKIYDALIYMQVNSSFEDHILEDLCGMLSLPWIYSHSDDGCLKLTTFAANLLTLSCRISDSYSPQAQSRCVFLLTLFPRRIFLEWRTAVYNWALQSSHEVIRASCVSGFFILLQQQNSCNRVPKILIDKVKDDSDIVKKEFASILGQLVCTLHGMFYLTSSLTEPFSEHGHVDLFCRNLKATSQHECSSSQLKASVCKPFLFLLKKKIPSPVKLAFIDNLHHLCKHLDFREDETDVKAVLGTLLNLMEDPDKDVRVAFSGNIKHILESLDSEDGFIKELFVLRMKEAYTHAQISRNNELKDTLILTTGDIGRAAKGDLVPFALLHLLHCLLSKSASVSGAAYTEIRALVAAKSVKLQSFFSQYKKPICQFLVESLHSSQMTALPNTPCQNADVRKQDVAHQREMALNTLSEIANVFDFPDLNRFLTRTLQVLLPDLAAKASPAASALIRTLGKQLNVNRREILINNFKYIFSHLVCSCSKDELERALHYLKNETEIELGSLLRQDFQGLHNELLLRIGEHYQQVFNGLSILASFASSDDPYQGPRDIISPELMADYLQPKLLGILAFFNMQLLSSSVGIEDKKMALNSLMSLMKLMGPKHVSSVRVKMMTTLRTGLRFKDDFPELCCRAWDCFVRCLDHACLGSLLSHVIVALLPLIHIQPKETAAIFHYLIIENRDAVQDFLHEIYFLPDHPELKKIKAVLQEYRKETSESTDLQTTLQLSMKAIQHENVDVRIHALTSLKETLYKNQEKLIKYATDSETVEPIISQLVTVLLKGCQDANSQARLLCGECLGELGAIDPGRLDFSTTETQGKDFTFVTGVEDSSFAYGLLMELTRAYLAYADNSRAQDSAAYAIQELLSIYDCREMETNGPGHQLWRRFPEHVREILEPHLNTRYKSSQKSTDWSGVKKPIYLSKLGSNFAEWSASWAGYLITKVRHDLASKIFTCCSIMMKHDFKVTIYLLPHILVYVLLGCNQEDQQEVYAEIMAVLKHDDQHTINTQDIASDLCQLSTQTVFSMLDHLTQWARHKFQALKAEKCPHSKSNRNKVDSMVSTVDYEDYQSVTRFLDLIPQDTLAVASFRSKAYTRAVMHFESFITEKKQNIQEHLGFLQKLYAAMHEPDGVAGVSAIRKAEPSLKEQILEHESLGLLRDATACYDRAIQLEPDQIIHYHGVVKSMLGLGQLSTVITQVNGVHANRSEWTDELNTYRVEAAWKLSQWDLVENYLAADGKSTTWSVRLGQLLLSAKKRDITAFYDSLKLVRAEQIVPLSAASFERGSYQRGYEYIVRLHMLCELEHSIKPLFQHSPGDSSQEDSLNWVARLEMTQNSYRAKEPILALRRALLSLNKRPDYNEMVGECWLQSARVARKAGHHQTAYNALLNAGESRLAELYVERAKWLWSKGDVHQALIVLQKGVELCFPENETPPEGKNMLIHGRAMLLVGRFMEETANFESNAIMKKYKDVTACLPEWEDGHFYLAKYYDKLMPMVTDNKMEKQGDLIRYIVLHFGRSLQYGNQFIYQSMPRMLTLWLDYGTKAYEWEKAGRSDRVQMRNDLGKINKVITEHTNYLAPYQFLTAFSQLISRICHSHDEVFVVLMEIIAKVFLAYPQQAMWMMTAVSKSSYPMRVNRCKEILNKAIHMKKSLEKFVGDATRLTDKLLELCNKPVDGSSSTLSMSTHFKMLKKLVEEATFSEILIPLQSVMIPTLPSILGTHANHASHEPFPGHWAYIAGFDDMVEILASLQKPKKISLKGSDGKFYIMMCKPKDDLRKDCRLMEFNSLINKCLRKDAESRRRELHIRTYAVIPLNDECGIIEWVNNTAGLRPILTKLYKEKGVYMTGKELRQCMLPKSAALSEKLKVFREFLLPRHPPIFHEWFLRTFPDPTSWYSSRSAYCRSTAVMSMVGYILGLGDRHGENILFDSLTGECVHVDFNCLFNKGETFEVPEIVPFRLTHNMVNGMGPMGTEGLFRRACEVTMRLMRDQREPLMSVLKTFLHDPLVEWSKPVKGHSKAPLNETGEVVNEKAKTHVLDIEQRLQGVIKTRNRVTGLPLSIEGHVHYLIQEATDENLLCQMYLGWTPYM", "experiment": "ATR Inhibition Assay (radioactive-phosphate incorporation)", "format": "biochemical", "conditions": "read-out: ATR Ki", "summary_of_the_method": "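Full-length human ATR (5 nM) was assayed at 25 °C in 50 mM Tris/HCl pH 7.5, 10 mM MgCl2, 1 mM DTT, with 10 μM [γ-33P]ATP and 800 μM peptide, after 10-min compound preincubation. Reactions were stopped after 24 h, captured on phosphocellulose and counted; Ki(app) came from non-linear regression of initial rates.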", "units": {"Ki": "nM"}}
{"compound": "Cc1ccc2nc(-c3nc(-c4ccc(C(=O)N5CCNCC5)cc4)cnc3N)[nH]c2c1", "note": "[III-3, (4-(5-amino-6-(6-methyl-1H-benzo[d]imidazol-2-yl)pyrazin-2-yl)phenyl)(piperazin-1-yl)methanone]", "Ki": "10 to 100"}
{"compound": "Cc1ccc2nc(-c3nc(-c4ccc(C(=O)N5CCC(N(C)C)CC5)cc4)cnc3N)[nH]c2c1", "note": "[Compound I-148, (4-(5-amino-6-(6-methyl-1H-benzo[d]imidazol-2-yl)pyrazin-2-yl)phenyl)(4-(dimethylamino)piperidin-1-yl)methanone]", "Ki": "10 to 100"}
{"compound": "CC(C)(C)S(=O)(=O)c1ccc(-c2cnc(N)c(-c3nnc(-c4ccccc4)o3)n2)cc1", "note": "[IA-280, 5-(4-tert-butylsulfonylphenyl)-3-(5-phenyl-1,3,4-oxadiazol-2-yl)pyrazin-2-amine]", "Ki": "≤ 10"}
{"compound": "CN(C)C(=O)c1ccccc1-c1cnc(N)c(-c2nnc(-c3ccccc3)o2)n1", "note": "[IA-244, 2-[5-amino-6-(5-phenyl-1,3,4-oxadiazol-2-yl)pyrazin-2-yl]-N,N-dimethyl-benzamide]", "Ki": "100 to 5000"}
{"compound": "CC(C)S(=O)(=O)c1ccc(-c2cnc(N)c(-c3nnc(-c4ccccc4O)o3)n2)cc1", "note": "[IA-235, 2-[5-[3-amino-6-(4-isopropylsulfonylphenyl)pyrazin-2-yl]-1,3,4-oxadiazol-2-yl]phenol]", "Ki": "≤ 10"}
{"compound": "CNCc1ccc(-c2nnc(-c3nc(-c4ccc(S(=O)(=O)C5CCOCC5)cc4)cnc3N)o2)cc1", "note": "[IA-323, 3-[5-[4-(methylaminomethyl)phenyl]-1,3,4-oxadiazol-2-yl]-5-(4-tetrahydropyran-4-ylsulfonylphenyl)pyrazin-2-amine]", "Ki": "≤ 10"}
{"compound": "Nc1ncc(-c2cccnc2)nc1C(=O)Nc1ccc2[nH]ccc2c1", "note": "[Compound V-17]", "Ki": "10 to 100"}
{"compound": "Nc1ncc(-c2ccc(C(=O)NCCN3CCCC3)cc2)nc1-c1nc2ccccc2[nH]1", "note": "[Compound I-152, 4-(5-amino-6-(1H-benzo[d]imidazol-2-yl)pyrazin-2-yl)-N-(2-(pyrrolidin-1-yl)ethyl)benzamide]", "Ki": "10 to 100"}
{"compound": "Nc1ncc(-c2ccc(NCCN3CCOCC3)nc2)nc1-c1nnc(-c2ccccc2)o1", "note": "[IA-72, 5-[6-(2-morpholinoethylamino)-3-pyridyl]-3-(5-phenyl-1,3,4-oxadiazol-2-yl)pyrazin-2-amine]", "Ki": "100 to 5000"}
{"compound": "Nc1ncc(-c2ccc(C(=O)N3CCCCC3)cc2)nc1C(=O)Nc1ccccc1", "note": "[Compound I-78, 3-amino-N-phenyl-6-(4-(piperidine-1-carbonyl)phenyl)pyrazine-2-carboxamide]", "Ki": "10 to 100"}
{"compound": "COc1ccccc1NC(=O)c1nc(-c2cccnc2)cnc1N", "note": "[Compound I-106, 3-amino-N-(2-methoxyphenyl)-6-(pyridin-3-yl)pyrazine-2-carboxamide]", "Ki": "10 to 100"}
{"compound": "Nc1ncc(-c2ccccc2CO)nc1-c1nc2ccccc2[nH]1", "note": "[Compound I-127, (2-(5-amino-6-(1H-benzo[d]imidazol-2-yl)pyrazin-2-yl)phenyl)methanol]", "Ki": "100 to 5000"}
{"compound": "CC(C)S(=O)(=O)c1ccc(-c2cnc(N)c(-c3nnc(-c4ccc(CNC[C@@H](C)O)cc4F)o3)n2)cc1", "note": "[IA-341, (R)-1-(4-(5-(3-amino-6-(4-(isopropylsulfonyl)phenyl)pyrazin-2-yl)-1,3,4-oxadiazol-2-yl)-3-fluorobenzylamino)propan-2-ol]", "Ki": "≤ 10"}
{"compound": "CC(C)S(=O)(=O)c1ccc(-c2cnc(N)c(-c3nnc(-c4ccc([C@H](C)N)cc4)o3)n2)cc1", "note": "[IA-228, 3-[5-[4-[(1S)-1-aminoethyl]phenyl]-1,3,4-oxadiazol-2-yl]-5-(4-isopropylsulfonylphenyl)pyrazin-2-amine]", "Ki": "≤ 10"}
{"compound": "CN(C)C(=O)c1ccc(-c2cnc(N)c(-c3nnc(-c4cccs4)o3)n2)cc1", "note": "[IA-52]", "Ki": "≤ 10"}
{"compound": "N#Cc1ccccc1-c1cnc(N)c(-c2nnc(-c3ccccc3)o2)n1", "note": "[IA-50]", "Ki": "10 to 100"}
{"compound": "CNCc1ccc(-c2nnc(-c3nc(-c4ccc(C(=O)N(C)C)cc4)cnc3N)o2)cc1", "note": "[IA-281, 4-[5-amino-6-[5-[4-(methylaminomethyl)phenyl]-1,3,4-oxadiazol-2-yl]pyrazin-2-yl]-N,N-dimethyl-benzamide]", "Ki": "≤ 10"}
{"compound": "Cc1ccsc1-c1nnc(-c2nc(-c3ccccc3[S+](C)[O-])cnc2N)o1", "note": "(stereo not shown) [IA-179, 5-(2-methylsulfinylphenyl)-3-[5-(3-methyl-2-thienyl)-1,3,4-oxadiazol-2-yl]pyrazin-2-amine]", "Ki": "≤ 10"}
{"compound": "CN(C)[C@@H]1CCN(S(=O)(=O)c2ccc(-c3cnc(N)c(-c4nnc(-c5ccccc5)o4)n3)cc2)C1", "note": "[IA-25]", "Ki": "10 to 100"}
{"compound": "CC[S+]([O-])c1ccccc1-c1cnc(N)c(-c2nnc(-c3ccccc3)o2)n1", "note": "(stereo not shown) [IA-256, 5-(2-ethylsulfinylphenyl)-3-(5-phenyl-1,3,4-oxadiazol-2-yl)pyrazin-2-amine]", "Ki": "≤ 10"}
{"compound": "Nc1ncc(-c2ccncc2)nc1C(=O)Nc1ccccc1", "note": "[Compound I-33, 3-amino-N-phenyl-6-(pyridin-4-yl)pyrazine-2-carboxamide]", "Ki": "100 to 5000"}
{"compound": "CNCc1ccc(-c2nnc(-c3nc(-c4ccc(S(=O)(=O)C(C)CN(C)C)cc4)cnc3N)o2)cc1", "note": "(stereo not shown) [IA-324, 5-[4-[2-(dimethylamino)-1-methyl-ethyl]sulfonylphenyl]-3-[5-[4-(methylaminomethyl)phenyl]-1,3,4-oxadiazol-2-yl]pyrazin-2-amine]", "Ki": "≤ 10"}
{"compound": "CC(=O)Nc1ccc(-c2cnc(N)c(-c3nnc(-c4ccccc4)o3)n2)cc1", "note": "[IA-247, N-[4-[5-amino-6-(5-phenyl-1,3,4-oxadiazol-2-yl)pyrazin-2-yl]phenyl]acetamide]", "Ki": "10 to 100"}
{"compound": "N#Cc1cc(C(=O)N2CCCNCC2)ccc1-c1cnc(N)c(-c2nnc(-c3ccccc3)s2)n1", "note": "[IVA-2, 2-[5-amino-6-(5-phenyl-1,3,4-thiadiazol-2-yl)pyrazin-2-yl]-5-(1,4-diazepane-1-carbonyl)benzonitrile]", "Ki": "≤ 10"}
{"compound": "CC(=O)Nc1cccc(-c2cnc(N)c(-c3nnc(-c4ccccc4)o3)n2)c1", "note": "[IA-66]", "Ki": "10 to 100"}
{"compound": "Nc1ncc(-c2ccc(N3CCNCC3)nc2)nc1-c1nnc(-c2ccccc2)o1", "note": "[IA-186, 3-(5-phenyl-1,3,4-oxadiazol-2-yl)-5-(6-piperazin-1-yl-3-pyridyl)pyrazin-2-amine]", "Ki": "100 to 5000"}
{"compound": "Nc1ncc(-c2ccn[nH]2)nc1C(=O)Nc1ccccc1", "note": "[Compound I-31, 3-amino-N-phenyl-6-(1H-pyrazol-5-yl)pyrazine-2-carboxamide]", "Ki": "10 to 100"}
{"compound": "Nc1ncc(-c2ccc(C(=O)N3CCCNCC3)cc2)nc1C(=O)Nc1cc2ccccc2[nH]1", "note": "[Compound V-6]", "Ki": "100 to 5000"}
{"compound": "CC(=O)NCc1ccc(-c2cnc(N)c(-c3nc4ccccc4[nH]3)n2)cc1", "note": "[Compound I-130, N-(4-(5-amino-6-(1H-benzo[d]imidazol-2-yl)pyrazin-2-yl)benzyl) ethanamide]", "Ki": "100 to 5000"}
{"compound": "COc1ccccc1-c1cnc(N)c(-c2nnc(-c3ccccc3)o2)n1", "note": "[IA-65]", "Ki": "100 to 5000"}
{"compound": "CC(C)S(=O)(=O)c1ccc(-c2cnc(N)c(-c3nnc(-c4ccc(CNC5COC5)cc4F)o3)n2)cc1", "note": "[IA-319, 3-[5-[2-fluoro-4-[(oxetan-3-ylamino)methyl]phenyl]-1,3,4-oxadiazol-2-yl]-5-(4-isopropylsulfonylphenyl)pyrazin-2-amine]", "Ki": "≤ 10"}
{"compound": "CC(C)S(=O)(=O)c1ccc(-c2cnc(N)c(-c3nnc(-c4ccc(CN[C@@H](C)CO)cc4F)o3)n2)cc1", "note": "[IA-335, (S)-2-(4-(5-(3-amino-6-(4-(isopropylsulfonyl)phenyl)pyrazin-2-yl)-1,3,4-oxadiazol-2-yl)-3-fluorobenzylamino)propan-1-ol]", "Ki": "≤ 10"}
{"compound": "CC(C)NCc1ccc(-c2nnc(-c3nc(-c4ccc(S(=O)(=O)C(C)C)cc4)cnc3N)o2)s1", "note": "[IA-248, 3-[5-[5-[(isopropylamino)methyl]-2-thienyl]-1,3,4-oxadiazol-2-yl]-5-(4-isopropylsulfonylphenyl)pyrazin-2-amine]", "Ki": "≤ 10"}
{"compound": "CC(C)S(=O)(=O)c1ccc(-c2cnc(N)c(-c3nnc(C(=O)N4CCCC(N)C4)o3)n2)cc1", "note": "(stereo not shown) [IA-98, [5-[3-amino-6-(4-isopropylsulfonylphenyl)pyrazin-2-yl]-1,3,4-oxadiazol-2-yl]-(3-amino-1-piperidyl)methanone]", "Ki": "10 to 100"}
{"compound": "CNCc1cccc(NC(=O)c2nc(-c3ccc(S(=O)(=O)C(C)C)cc3)cnc2N)c1", "note": "[VII-12]", "Ki": "≤ 10"}
{"compound": "Nc1ncc(-c2cccc(C(=O)N3CCC(N4CCCC4)CC3)c2)nc1C(=O)Nc1ccccc1", "note": "[Compound I-56, 3-amino-N-phenyl-6-(3-(4-(pyrrolidin-1-yl)piperidine-1-carbonyl)phenyl)pyrazine-2-carboxamide]", "Ki": "100 to 5000"}
{"compound": "Nc1ncc(-c2ccco2)nc1C(=O)Nc1ccccc1", "note": "[Compound I-41, 3-amino-6-(furan-2-yl)-N-phenylpyrazine-2-carboxamide]", "Ki": "100 to 5000"}
{"compound": "CC(C)(C)CC(=O)N1CCCN(C(=O)c2ccc(-c3cnc(N)c(-c4nnc(-c5ccccc5)o4)n3)cc2)CC1", "note": "[IA-31]", "Ki": "≤ 10"}
{"compound": "Nc1ncc(-c2cccc(C(=O)N3CCOCC3)c2)nc1C(=O)Nc1ccc(N2CCCC2)cc1", "note": "[Compound I-26, 3-amino-6-(3-(morpholine-4-carbonyl)phenyl)-N-(4-(pyrrolidin-1-yl)phenyl)pyrazine-2-carboxamide]", "Ki": "100 to 5000"}
{"compound": "CN1CCN(C(=O)c2ccc(-c3cnc(N)c(C(=O)Nc4ccccc4)n3)cc2)CC1", "note": "[Compound I-73, 3-amino-6-(4-(4-methylpiperazine-1-carbonyl)phenyl)-N-phenylpyrazine-2-carboxamide]", "Ki": "10 to 100"}
{"compound": "Cc1ccc2nc(-c3nc(-c4ccc(C(=O)N5CCCN(C(=O)OC(C)(C)C)CC5)cc4)cnc3N)[nH]c2c1", "note": "[Compound I-147, tert-butyl 4-(4-(5-amino-6-(6-methyl-1H-benzo[d]imidazol-2-yl)pyrazin-2-yl)phenylcarbonyl)-1,4-diazepane-1-carboxylate]", "Ki": "≤ 10"}
{"compound": "CNCc1cccc(NC(=O)c2nc(-c3ccc(S(C)(=O)=O)cc3)cnc2N)c1", "note": "[VII-13]", "Ki": "10 to 100"}
{"compound": "COc1ccc2nc(-c3nc(-c4ccc(S(C)(=O)=O)cc4)cnc3N)[nH]c2c1", "note": "[Compound I-115, 3-(6-methoxy-1H-benzo[d]imidazol-2-yl)-5-(4-(methylsulfonyl)phenyl) pyrazin-2-amine]", "Ki": "10 to 100"}
